These results are taken from patent US8372876B2, “Method for improving memory in mammals” (The University of Houston System, priority 2007, dated 2013).

“Also recorded” adds a separate entry of the source. Where only a bound is given, the exact number is not on record here.

The test system of one assay is Zebrafish (D. rerio). Put plainly: active-avoidance conditioning in a shuttle box: learning (trials to criteria) and 24 h retention score. Type of assay: in vivo. The method, then: Zebrafish (D. rerio) were bred, raised and maintained by the experimenter at the University of Houston Animals Facility. Adult zebrafish are maintained in 2-liter modular aquaria (Marine Biotech) with continuous water exchange at 26-28° C. under 14:10 hours light:dark cycle. Eggs and larvae are maintained in beakers with daily water changes, under the same light:dark cycle and similar temperatures. Larval fish are fed with filtered paramecium. All animals, juvenile (>15 days) and adults are fed three times a day with live brine shrimp or flake. The *AB strain was originally obtained from the University of Oregon. All protocols were approved by the University of Houston Institutional Animal Care Use Committee. Zebrafish are trained on an active-avoidance conditioning paradigm using a modified shuttle box. Zebrafish must cross a hurdle to avoid electric shocks (3V; unconditioned stimulus) administered via electrodes 10 seconds after the onset of the conditioned stimulus which was a dim red light. Dim red lights are placed at the extremity of each compartment of the shuttle box. The light signal was kept on during each cycle lasting for 20 seconds in one compartment; subsequently, the conditioned and unconditioned stimuli changed to the other side of the shuttle box. Zebrafish must learn to escape the dark compartment and maintain in the compartment having the light stimulus on for the remaining trial period. Animals that respond correctly to the light signals in eight out of ten consecutive trials during the training period are designated learners. Training was terminated once Zebrafish achieve the learning criteria (i.e. swimming the compartment where the stimulus light was on and remain there until the light was switched off). […] Animals are tested 24 hours later under identical conditions to test for retention of the learned task. To quantitatively evaluate the ability of each learner to recall the active avoidance conditioning paradigm, a retention score was calculated using the algorithm of Piront and Schmidt [formula] The number of trials required to reach the learning criteria during the test session was subtracted from number of trials required to reach the learning criteria in the training session, divided by the number of trials in the test plus training sessions. Retention scores range from 0 to 1.0. […] Melatonin Blocks Long-Term Memory Formation During the Subjective Day This melatonin effect was tested by taking animals originally under 14:10 hours light:dark cycles and exposing them to constant darkness for 4 days. On the 3rd day of constant darkness and one hour prior to training at CT7 (corresponds to 4 pm) animals were bathed in increasing concentrations of melatonin (1 μM, 10 μM, 50 μM and 100 μM). Animals were then trained at CT8 for active avoidance conditioning and tested 24 hours later on the 4th day of constant darkness at CT8 for long-term memory formation. […] To test whether melatonin blocks long-term memory formation via melatonin receptor mediated signaling pathway, the following experiments were performed. Animals in their original 14:10 hours light:dark cycles were set under free running conditions of constant darkness and temperature (25° C.) for 4 days. […] Treatments comprising of melatonin and either of its antagonists (luzindole or K-185) do improve the retention score, going from 0.1 with melatonin alone to about 0.4 in the presence of a mixture of melatonin and luzindole and to about 0.3 in the presence of a mixture of melatonin and K-185. […] This means that the inhibitory action of melatonin was mediated via a melatonin receptor-signaling pathway. […] This effect was tested by blocking night time melatonin receptor mediated signaling pathways with increased concentrations of melatonin receptor antagonist, such as luzindole. Animals in 14:10 hours light:dark cycles were exposed to constant darkness and temperature (25° C.) for 4 days. […]

The subject of a further assay is C3H/HeN mice. Particulars: more pronounced effect at midnight than midday; cited from earlier work.
Assay [1] deals with T1, MT2 than for MT1 subtypes of melatonin receptors (Homo sapiens, UniProt P49286).
T1 sequence (P49286 1-362): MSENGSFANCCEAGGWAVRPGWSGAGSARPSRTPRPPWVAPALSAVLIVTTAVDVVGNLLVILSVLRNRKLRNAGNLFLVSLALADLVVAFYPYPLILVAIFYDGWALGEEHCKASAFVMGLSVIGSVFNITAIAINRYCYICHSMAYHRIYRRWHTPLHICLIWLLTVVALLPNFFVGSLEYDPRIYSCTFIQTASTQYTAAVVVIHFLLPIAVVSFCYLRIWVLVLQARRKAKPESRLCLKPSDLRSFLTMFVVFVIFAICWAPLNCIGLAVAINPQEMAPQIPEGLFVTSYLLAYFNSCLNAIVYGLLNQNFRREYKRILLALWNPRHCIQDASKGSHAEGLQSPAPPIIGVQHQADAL
Particulars: MT2 versus MT1 selectivity; cited from earlier work.

For a further assay, the system named is zebrafish embryos. The settings on record: cited from earlier work.

For the molecule `CC(=O)NCCc1c(Cc2ccccc2)[nH]c2ccccc12` [luzindole, N-Acetyl-2-benzyltryptamine], the retention score entry in the assay on Zebrafish (D. rerio) (0.5 μM luzindole, 1 h at CT15, trained CT16, tested 24 h later (subjective night), FIG. 4b) is reported as “less than 0.1”; in the assay with Zebrafish (D. rerio) (1 μM luzindole, 1 h at CT15, trained CT16, tested 24 h later (subjective night), FIG. 4b) it was 0.25. The “number of trials to reach learning criteria” value in the assay with Zebrafish (D. rerio) (luzindole at increasing concentration, 1 h at CT15, trained CT16 (subjective night), constant darkness, FIG. 4a) is reported as “No significant difference; also recorded: remains the same”. Further, the “duration of immobility during swimming” value with C3H/HeN mice is “decreases the duration of immobility during swimming”.
Take `CCCC(=O)NCCc1c2n(c3ccc(OC)cc13)CCCc1ccccc1-2` [K-185, N-butanoyl-2-(5,6,7-trihydro-11-methoxy-benzo[3,4]cyclohept[2,1-a]indol-13-yl) ethanamine]: the “higher affinity for MT2 than for MT1” value in assay [1] is more than 140 fold. Moreover, the “antagonism of the effect of melatonin on zebrafish development” value with zebrafish embryos is reported as “blocking the effect of melatonin on zebrafish development”.
Regarding `COc1ccc2[nH]cc(CCNC(C)=O)c2c1` [melatonin, 5-OCH3 N-acetyltryptamine], the retention score entry with Zebrafish (D. rerio) (100 μM melatonin, 1 h at CT7, trained CT8, tested 24 h later (subjective day), FIG. 2b) was “significantly reduced”; in the assay on Zebrafish (D. rerio) (melatonin concentration over 50 μM, 1 h at CT7, tested 24 h after training at CT8 (subjective day)), “around 0.1”. In the assay on Zebrafish (D. rerio) (low concentrations of melatonin, 1 h at CT7, tested 24 h after training at CT8), the “long-term memory formation (retention score)” value was “do not significantly block long-term memory formation”.
